Legend:
[1] = parameters: method as in PMID 27217046; conditions: clinical; cited from earlier work
[2] = parameters: method as in PMID 22509926; conditions: cited from earlier work
TrxR = biological target: T1, TrxR (Homo sapiens, UniProt Q16881); test: Thioredoxin reductase activity assay (insulin reduction) on lysates of drug-treated breast cancer cells; format: cell-based; conditions: 1000 nM; for inhibition of TrxR activity: 48 h
T1 sequence (Q16881 1-649): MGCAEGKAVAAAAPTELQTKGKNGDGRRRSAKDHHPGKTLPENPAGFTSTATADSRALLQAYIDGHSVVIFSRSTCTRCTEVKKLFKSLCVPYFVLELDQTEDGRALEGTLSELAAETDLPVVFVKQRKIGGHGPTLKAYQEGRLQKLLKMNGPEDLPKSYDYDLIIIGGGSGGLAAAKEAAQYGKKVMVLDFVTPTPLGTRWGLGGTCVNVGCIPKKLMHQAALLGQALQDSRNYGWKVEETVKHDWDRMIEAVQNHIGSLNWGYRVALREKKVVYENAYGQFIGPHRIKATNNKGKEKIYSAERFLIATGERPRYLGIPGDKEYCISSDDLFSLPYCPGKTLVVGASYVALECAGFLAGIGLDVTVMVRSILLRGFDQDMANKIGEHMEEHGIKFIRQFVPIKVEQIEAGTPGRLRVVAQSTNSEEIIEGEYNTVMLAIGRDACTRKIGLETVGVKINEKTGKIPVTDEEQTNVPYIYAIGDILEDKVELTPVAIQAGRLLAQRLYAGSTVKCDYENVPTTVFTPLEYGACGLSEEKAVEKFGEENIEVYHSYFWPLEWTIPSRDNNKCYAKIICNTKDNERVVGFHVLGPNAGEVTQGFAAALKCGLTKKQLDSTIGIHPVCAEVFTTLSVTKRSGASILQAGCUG
Description: TrxR enzyme activity was assessed using an insulin reduction assay. Briefly, 2 × 10^6 cells were seeded, in triplicate, in 75c m^2 tissue culture flasks. After 24 h, sub-confluent cells were treated with either IQ9 (0–1000 nM) or 1000 nM auranofin (as a positive control) for 4 or 48 h, then trypsinised, washed, and resuspended in M-PER™ Mammalian Protein Extraction Reagent (ThermoFisher, USA) supplemented with 1X Halt protease inhibitor and EDTA. Protein concentration was determined using the Bradford assay. 80 μg of protein lysates isolated from each treatment conditions and reaction mix (HE buffer (100 mM HEPES pH 7.2, 5 mM EDTA), 20 μM Trx, 1.7 mM insulin, 10 mM β-NADPH) were added to the 96-well plate and incubated for 1 h at 37 °C. The reaction was stopped by adding stop buffer containing 6 M guanidine hydrochloride, 50 mM Tris, and 10 mM DTNB (Sigma, UK), with a final pH of 8.0. The plate was read at room temperature using a BMG Fluostar Optima Microplate Reader at 412 nm wavelength. The TrxR activity was expressed as the percentage of control, no drug-treated.

renal cancer lines = tested on: renal cancer lines; parameters: method as in PMID 28810535; conditions: cited from earlier work
breast cancer lines = tested on: breast cancer lines; parameters: method as in PMID 31366901; conditions: cited from earlier work
breast cancer cell lines = test: Cell proliferation assay, stated across all cell lines; format: cell-based, human; conditions: 400–600 nM, 48 h
Description: 1 × 10^5 cells (2 × 10^5 for T47D’s) were seeded, in triplicate, in 6-well plates and incubated overnight before being treated with IQ9 (0–5000 nM) or doxorubicin (400–600 nM) (positive control and comparator). Total cells were counted after 48 h using a haemocytometer. The total cell count in drug treatment wells was normalised as a percentage of the total cells in vehicle control wells.

## O=c1[nH]cc(F)c(=O)[nH]1 [5-FU, 5-fluorouracil]
[1]
  half-life: less than 20 min

## Cn1c(/C=C/CO)c(CO)c2c1C(=O)C=C(N1CC1)C2=O [EO9]
[2]
  clearance: rapid clearance

## CC(=O)OC[C@H]1O[C@@H]([S-])[C@H](OC(C)=O)[C@@H](OC(C)=O)[C@@H]1OC(C)=O.CCP(CC)CC.[Au+] [auranofin, reference compound]
TrxR; 4 h, across all cell lines
  decrease in TrxR activity: 70–100%
TrxR; MDA-MB-231
  inhibition of TrxR activity: approximately 80%
TrxR; T47D, compared to control
  inhibition of TrxR activity: 10%

## COc1cc(/C=C/C(=O)CC(=O)/C=C/c2ccc(O)c(OC)c2)ccc1O [curcumin]
Renal cancer lines
  SER: 1.42
Breast cancer lines
  SER: 1.38–1.78

## COc1cccc2c1C(=O)c1c(O)c3c(c(O)c1C2=O)C[C@@](O)(C(=O)CO)C[C@@H]3O[C@H]1C[C@H](N)[C@H](O)[C@H](C)O1 [doxorubicin]
Breast cancer cell lines
  decrease in cell number: 50–70%

Reference: PMC8426295, “Cytotoxic and radiosensitising effects of a novel thioredoxin reductase inhibitor in breast cancer” (Investigational New Drugs, 2021)
